Experiments:
Assay in all cases: SILAC LC-MS ABPP
Format in all cases: cell-based
Settings in all cases: 25 μM 2 h, live DM93 cells
[1] = biological target: T1, O60828 (Homo sapiens, UniProt O60828)
T1 construct: endogenous in cells; host or cells: DM93
In short: (§1)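 In DM93 melanoma cells, heavy SILAC cultures take 25 μM SuTEx compound for 2 h at 37 °C while light cultures take DMSO. Both then receive HHS-475 alkyne probe at 100 μM for 2 h; probe-modified peptides are quantified by LC-MS/MS.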

[2] = biological target: T2, P08238 (Homo sapiens, UniProt P08238)
T2 construct: endogenous in cells; host or cells: DM93 cells (SILAC)
T2 sequence (P08238 whole entry): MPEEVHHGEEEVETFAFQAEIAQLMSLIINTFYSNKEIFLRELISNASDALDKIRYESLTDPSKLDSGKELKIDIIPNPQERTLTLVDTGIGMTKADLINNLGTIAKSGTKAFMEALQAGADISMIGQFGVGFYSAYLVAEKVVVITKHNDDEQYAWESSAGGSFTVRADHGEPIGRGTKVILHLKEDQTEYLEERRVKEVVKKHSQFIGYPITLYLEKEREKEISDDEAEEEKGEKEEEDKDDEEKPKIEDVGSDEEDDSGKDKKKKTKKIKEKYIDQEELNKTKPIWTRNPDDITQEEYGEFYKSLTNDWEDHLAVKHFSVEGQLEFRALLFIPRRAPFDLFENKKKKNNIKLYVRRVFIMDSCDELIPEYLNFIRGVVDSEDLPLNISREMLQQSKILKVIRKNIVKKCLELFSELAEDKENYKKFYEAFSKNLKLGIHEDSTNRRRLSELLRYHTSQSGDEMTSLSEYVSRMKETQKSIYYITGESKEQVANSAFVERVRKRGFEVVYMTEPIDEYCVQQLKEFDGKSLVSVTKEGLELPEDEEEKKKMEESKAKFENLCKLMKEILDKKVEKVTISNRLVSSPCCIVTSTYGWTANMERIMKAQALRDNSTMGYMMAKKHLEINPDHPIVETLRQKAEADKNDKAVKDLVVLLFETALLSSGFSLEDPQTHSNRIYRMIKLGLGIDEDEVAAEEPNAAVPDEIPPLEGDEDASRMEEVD
In short: as §1

[3] = biological target: T3, Q86VS8 (Homo sapiens, UniProt Q86VS8)
T3 construct: endogenous in cells; host or cells: DM93 cells (SILAC), live-cell treatment
In short: as §1

[4] = biological target: Q9H009 (Homo sapiens, UniProt Q9H009)
In short: as §1

[5] = biological target: T4, Q9NYF8 (Homo sapiens, UniProt Q9NYF8)
T4 construct: endogenous in cells; host or cells: DM93 cells (SILAC)
In short: as §1

[6] = biological target: T5, Q9Y2S7 (Homo sapiens, UniProt Q9Y2S7)
T5 construct: endogenous in cells; host or cells: DM93 cells (SILAC)
T5 sequence (Q9Y2S7 52-368): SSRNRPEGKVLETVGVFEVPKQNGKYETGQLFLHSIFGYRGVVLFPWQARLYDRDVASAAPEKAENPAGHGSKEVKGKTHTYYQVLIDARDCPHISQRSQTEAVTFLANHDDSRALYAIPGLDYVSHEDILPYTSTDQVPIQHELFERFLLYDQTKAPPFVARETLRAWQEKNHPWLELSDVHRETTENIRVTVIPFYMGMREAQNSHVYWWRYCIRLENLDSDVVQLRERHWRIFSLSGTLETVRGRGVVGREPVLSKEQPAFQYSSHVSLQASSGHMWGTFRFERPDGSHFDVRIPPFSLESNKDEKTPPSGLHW
In short: as §1

[7] = biological target: T6, O60763 (Homo sapiens, UniProt O60763)
T6 construct: endogenous in cells; host or cells: DM93
In short: as §1

[8] = biological target: T7, P46940 (Homo sapiens, UniProt P46940)
T7 construct: endogenous in cells; host or cells: DM93 cells (SILAC)
In short: as §1

[9] = biological target: T8, P54578 (Homo sapiens, UniProt P54578)
T8 construct: endogenous in cells; host or cells: DM93 cells (SILAC)
In short: as §1

[10] = biological target: T9, Q9NV35 (Homo sapiens, UniProt Q9NV35)
T9 construct: endogenous in cells; host or cells: DM93 cells (SILAC), treated live; soluble proteome analysed
In short: as §1

[11] = biological target: T10, Q9NVE7 (Homo sapiens, UniProt Q9NVE7)
T10 construct: endogenous in cells; host or cells: DM93 cells (SILAC)
In short: as §1

[12] = biological target: T11, Q9P2E9 (Homo sapiens, UniProt Q9P2E9)
T11 construct: endogenous in cells; host or cells: DM93 cells (SILAC)
T11 sequence (Q9P2E9 whole entry): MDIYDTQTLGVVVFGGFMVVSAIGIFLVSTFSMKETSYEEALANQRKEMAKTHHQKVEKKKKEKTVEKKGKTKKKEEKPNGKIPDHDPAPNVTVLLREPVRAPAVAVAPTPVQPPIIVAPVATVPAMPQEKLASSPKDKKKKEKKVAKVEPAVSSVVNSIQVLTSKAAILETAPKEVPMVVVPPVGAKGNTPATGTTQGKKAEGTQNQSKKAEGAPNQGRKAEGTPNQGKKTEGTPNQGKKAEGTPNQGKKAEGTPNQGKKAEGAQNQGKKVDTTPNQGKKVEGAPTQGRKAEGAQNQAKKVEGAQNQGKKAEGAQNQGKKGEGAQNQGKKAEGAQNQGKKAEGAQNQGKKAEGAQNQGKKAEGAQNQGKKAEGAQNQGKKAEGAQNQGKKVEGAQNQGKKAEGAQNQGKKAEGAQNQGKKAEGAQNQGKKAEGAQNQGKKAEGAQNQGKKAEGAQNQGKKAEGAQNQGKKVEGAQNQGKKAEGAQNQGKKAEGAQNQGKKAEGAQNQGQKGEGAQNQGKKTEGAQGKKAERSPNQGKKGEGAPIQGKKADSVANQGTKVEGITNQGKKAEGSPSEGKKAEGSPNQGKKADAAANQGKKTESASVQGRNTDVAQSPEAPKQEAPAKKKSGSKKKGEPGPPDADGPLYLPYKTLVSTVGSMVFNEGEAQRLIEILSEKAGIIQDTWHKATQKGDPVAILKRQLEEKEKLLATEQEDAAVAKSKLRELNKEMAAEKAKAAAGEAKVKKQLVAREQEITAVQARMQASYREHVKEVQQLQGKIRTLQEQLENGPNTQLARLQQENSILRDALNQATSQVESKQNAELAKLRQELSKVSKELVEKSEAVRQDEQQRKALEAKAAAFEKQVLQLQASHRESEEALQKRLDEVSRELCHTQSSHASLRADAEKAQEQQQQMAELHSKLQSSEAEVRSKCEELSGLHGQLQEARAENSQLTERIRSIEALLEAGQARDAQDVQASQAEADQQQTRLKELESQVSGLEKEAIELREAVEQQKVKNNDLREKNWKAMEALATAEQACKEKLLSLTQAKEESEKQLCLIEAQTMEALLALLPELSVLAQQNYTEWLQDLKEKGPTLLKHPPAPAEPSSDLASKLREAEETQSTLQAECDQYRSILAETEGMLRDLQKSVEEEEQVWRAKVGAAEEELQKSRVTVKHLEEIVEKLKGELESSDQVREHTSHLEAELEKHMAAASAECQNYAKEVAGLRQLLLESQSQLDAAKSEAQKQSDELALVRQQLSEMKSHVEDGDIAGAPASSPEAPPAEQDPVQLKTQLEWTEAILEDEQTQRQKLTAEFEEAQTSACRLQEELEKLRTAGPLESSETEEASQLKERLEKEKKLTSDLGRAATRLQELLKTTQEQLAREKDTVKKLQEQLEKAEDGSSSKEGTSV
In short: as §1

[13] = biological target: T12, P23921 (Homo sapiens, UniProt P23921)
T12 construct: Probe-modified proteins from the soluble fraction were conjugated to a desthiobiotin-azide tag; endogenous in cells; host or cells: DM93 (SILAC)
In short: as §1

[14] = biological target: T13, P55084 (Homo sapiens, UniProt P55084)
T13 construct: endogenous in cells; host or cells: DM93 cells (SILAC)
In short: as §1

[15] = biological target: T14, Q14914 (Homo sapiens, UniProt Q14914)
T14 construct: performing SuTEx compound screening directly in cells; endogenous in cells; host or cells: DM93 cells (SILAC), soluble fraction
T14 sequence (Q14914 whole entry): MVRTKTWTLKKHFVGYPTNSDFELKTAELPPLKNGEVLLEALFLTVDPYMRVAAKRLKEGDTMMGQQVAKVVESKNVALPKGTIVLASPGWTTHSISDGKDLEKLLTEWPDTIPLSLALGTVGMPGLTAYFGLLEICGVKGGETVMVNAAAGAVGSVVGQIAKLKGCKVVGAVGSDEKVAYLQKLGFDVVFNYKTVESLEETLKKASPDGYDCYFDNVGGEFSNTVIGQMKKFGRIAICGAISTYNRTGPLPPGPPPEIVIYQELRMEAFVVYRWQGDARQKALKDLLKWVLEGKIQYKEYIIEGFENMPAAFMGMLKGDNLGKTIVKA
In short: as §1

[16] = biological target: T15, O95373 (Homo sapiens, UniProt O95373)
T15 construct: endogenous in cells; host or cells: DM93 cells (SILAC)
T15 sequence (O95373 whole entry): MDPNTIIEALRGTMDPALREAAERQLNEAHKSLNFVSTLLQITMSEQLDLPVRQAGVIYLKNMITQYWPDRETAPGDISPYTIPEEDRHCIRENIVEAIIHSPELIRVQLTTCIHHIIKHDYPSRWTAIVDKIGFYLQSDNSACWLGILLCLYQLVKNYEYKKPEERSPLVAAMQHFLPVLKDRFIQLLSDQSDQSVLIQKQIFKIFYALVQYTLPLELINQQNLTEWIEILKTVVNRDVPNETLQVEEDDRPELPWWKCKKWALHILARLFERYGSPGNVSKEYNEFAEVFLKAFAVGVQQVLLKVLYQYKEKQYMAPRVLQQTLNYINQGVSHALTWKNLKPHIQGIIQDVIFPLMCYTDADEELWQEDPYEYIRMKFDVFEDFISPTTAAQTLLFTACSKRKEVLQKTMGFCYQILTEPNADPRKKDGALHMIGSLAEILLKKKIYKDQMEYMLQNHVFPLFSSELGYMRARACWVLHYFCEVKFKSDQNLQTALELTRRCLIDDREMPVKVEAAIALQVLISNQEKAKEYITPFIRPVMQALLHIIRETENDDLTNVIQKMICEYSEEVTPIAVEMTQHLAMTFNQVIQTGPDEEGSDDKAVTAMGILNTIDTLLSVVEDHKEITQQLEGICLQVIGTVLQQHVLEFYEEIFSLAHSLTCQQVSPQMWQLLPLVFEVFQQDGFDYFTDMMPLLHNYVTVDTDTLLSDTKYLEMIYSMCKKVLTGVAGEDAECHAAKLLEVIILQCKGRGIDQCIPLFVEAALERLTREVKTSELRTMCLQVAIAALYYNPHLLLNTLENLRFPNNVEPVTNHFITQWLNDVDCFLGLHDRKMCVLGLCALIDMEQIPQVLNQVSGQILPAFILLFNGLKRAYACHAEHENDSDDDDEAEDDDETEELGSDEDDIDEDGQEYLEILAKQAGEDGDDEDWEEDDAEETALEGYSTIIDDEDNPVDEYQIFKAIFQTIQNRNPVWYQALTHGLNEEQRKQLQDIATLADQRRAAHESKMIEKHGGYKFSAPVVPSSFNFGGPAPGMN
In short: as §1

[17] = biological target: T16, P06396 (Homo sapiens, UniProt P06396)
T16 construct: endogenous in cells; host or cells: DM93 cells (SILAC)
T16 sequence (P06396 52-782 limits assumed): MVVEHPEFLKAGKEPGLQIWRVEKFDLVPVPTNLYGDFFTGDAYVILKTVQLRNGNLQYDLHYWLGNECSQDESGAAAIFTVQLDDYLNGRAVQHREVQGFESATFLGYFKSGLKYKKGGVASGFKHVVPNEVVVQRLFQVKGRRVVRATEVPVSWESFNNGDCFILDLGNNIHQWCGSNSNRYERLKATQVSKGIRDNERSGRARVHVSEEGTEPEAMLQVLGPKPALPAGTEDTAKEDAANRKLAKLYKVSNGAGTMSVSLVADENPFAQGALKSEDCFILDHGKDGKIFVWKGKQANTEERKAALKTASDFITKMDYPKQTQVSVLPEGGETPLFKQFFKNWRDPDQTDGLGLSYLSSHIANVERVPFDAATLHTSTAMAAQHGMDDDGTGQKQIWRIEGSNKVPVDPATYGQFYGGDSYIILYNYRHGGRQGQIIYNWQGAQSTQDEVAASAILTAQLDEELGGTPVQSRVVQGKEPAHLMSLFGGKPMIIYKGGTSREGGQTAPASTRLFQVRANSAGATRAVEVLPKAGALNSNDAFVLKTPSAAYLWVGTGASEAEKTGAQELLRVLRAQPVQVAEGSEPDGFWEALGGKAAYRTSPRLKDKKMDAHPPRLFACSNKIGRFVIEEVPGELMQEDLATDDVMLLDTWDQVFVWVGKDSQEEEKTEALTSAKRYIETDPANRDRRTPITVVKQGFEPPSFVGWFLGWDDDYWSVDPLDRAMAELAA
In short: as §1

[18] = biological target: T17, P43490 (Homo sapiens, UniProt P43490)
T17 construct: endogenous in cells; host or cells: DM93 cells (SILAC)
T17 sequence (P43490 whole entry): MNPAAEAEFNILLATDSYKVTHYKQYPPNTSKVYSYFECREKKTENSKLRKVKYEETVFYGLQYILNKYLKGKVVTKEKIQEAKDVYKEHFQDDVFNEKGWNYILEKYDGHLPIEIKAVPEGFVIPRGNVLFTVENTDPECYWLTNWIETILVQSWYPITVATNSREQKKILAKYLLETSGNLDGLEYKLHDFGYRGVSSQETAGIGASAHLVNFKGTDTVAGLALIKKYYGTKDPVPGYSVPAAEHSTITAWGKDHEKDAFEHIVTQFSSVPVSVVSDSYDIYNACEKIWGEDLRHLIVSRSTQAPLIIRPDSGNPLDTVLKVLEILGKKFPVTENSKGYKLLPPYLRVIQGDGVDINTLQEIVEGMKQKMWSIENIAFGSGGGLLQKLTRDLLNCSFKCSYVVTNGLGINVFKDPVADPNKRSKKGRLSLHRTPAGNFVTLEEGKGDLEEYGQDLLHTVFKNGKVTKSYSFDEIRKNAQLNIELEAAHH
In short: as §1

O=C(NC1CC1)c1ccc(S(=O)(=O)n2cncn2)cc1 [HHS-0101, 4-((1H-1,2,4-triazol-1-yl)sulfonyl)-N-cyclopropylbenzamide]
liganded tyrosine site 209 [1]: HHS0101.Y|HHS0401.Y (tyrosine sites that showed >80% reductions (SR >5) in probe labeling in cells treated with compounds (liganded sites)) | liganded tyrosine site 430 [2]: HHS0101.Y|HHS0201.Y|HHS0301.Y|HHS0401.Y (tyrosine sites that showed >80% reductions (SR >5) in probe labeling in cells treated with compounds (liganded sites)) | liganded tyrosine site 323 [3]: HHS0101.Y|HHS0401.Y|HHS0701.Y (tyrosine sites that showed >80% reductions (SR >5) in probe labeling in cells treated with compounds (liganded sites)) | liganded tyrosine site 112 [4]: HHS0101.Y|HHS0201.Y|HHS0301.Y|HHS0401.Y|HHS0701.Y (tyrosine sites that showed >80% reductions (SR >5) in probe labeling in cells treated with compounds (liganded sites)) | liganded tyrosine site 322 [5]: HHS0101.Y|HHS0201.Y|HHS0301.Y|HHS0401.Y (tyrosine sites that showed >80% reductions (SR >5) in probe labeling in cells treated with compounds (liganded sites)) | liganded tyrosine site 168 [6]: HHS0101.Y (tyrosine sites that showed >80% reductions (SR >5) in probe labeling in cells treated with compounds (liganded sites))

O=C(NCC1CC1)c1ccc(S(=O)(=O)n2cncn2)cc1 [HHS-0201, 4-((1H-1,2,4-triazol-1-yl)sulfonyl)-N-(cyclopropylmethyl)benzamide]
liganded tyrosine site 718 [7]: HHS0201.Y (tyrosine sites that showed >80% reductions (SR >5) in probe labeling in cells treated with compounds (liganded sites)) | liganded tyrosine site 977 [8]: HHS0201.Y|HHS0301.Y|HHS0701.Y (tyrosine sites that showed >80% reductions (SR >5) in probe labeling in cells treated with compounds (liganded sites)) | liganded tyrosine site 401 [9]: HHS0201.Y (tyrosine sites that showed >80% reductions (SR >5) in probe labeling in cells treated with compounds (liganded sites)) | liganded tyrosine site 92 [10]: HHS0201.Y (tyrosine sites that showed >80% reductions (SR >5) in probe labeling in cells treated with compounds (liganded sites)) | liganded tyrosine site 338 [11]: HHS0201.Y|HHS0401.Y (tyrosine sites that showed >80% reductions (SR >5) in probe labeling in cells treated with compounds (liganded sites))

O=C(NC1CCCCC1)c1ccc(S(=O)(=O)n2cncn2)cc1 [HHS-0301, 4-((1H-1,2,4-triazol-1-yl)sulfonyl)-N-cyclohexylbenzamide]
liganded tyrosine site 647 [12]: HHS0301.Y (tyrosine sites that showed >80% reductions (SR >5) in probe labeling in cells treated with compounds (liganded sites))

O=C(NCc1ccccc1)c1ccc(S(=O)(=O)n2cncn2)cc1 [HHS-0401, 4-((1H-1,2,4-triazol-1-yl)sulfonyl)-N-benzylbenzamide]
liganded tyrosine site 485 [13]: HHS0401.Y (tyrosine sites that showed >80% reductions (SR >5) in probe labeling in cells treated with compounds (liganded sites)) | liganded tyrosine site 402 [14]: HHS0401.Y (tyrosine sites that showed >80% reductions (SR >5) in probe labeling in cells treated with compounds (liganded sites)) | liganded tyrosine site 262 [15]: HHS0401.Y (tyrosine sites that showed >80% reductions (SR >5) in probe labeling in cells treated with compounds (liganded sites))

O=C(c1ccc(S(=O)(=O)n2cncn2)cc1)N1CCC(c2ccccc2)CC1 [HHS-0701, (4-((1H-1,2,4-triazol-1-yl)sulfonyl)phenyl)(4-phenylpiperidin-1-yl)methanone]
liganded tyrosine site 416 [16]: HHS0701.Y (tyrosine sites that showed >80% reductions (SR >5) in probe labeling in cells treated with compounds (liganded sites)) | liganded tyrosine site 455 [16]: HHS0701.Y (tyrosine sites that showed >80% reductions (SR >5) in probe labeling in cells treated with compounds (liganded sites)) | liganded tyrosine site 469 [17]: HHS0701.Y (tyrosine sites that showed >80% reductions (SR >5) in probe labeling in cells treated with compounds (liganded sites)) | liganded tyrosine site 188 [18]: HHS0701.Y (tyrosine sites that showed >80% reductions (SR >5) in probe labeling in cells treated with compounds (liganded sites))

From patent publication US20240210412A1, “SULFONYL-TRIAZOLE COMPOUNDS USEFUL AS LIGANDS AND INHIBITORS OF PROSTAGLANDIN REDUCTASE 2” (University of Virginia Patent Foundation, priority 2021, published 2024)
